# Results reported in paper PMC5520944 (Cell Death & Disease, 2017).
# Where a name gives a salt, the structure may show the parent alone. Read-outs that look alike come from different tables or passages of the source.
# What was measured:
# [1] = tested on: Molm13; assay: cells; set-up: species or system Jurkat FADD-/-, HT-29, MV4-11 or Molm13; protection from induced necroptosis, cell death by PI staining and flow cytometry; details: Homo sapiens, MOLM-13; BV6 + zVAD; inhibition of induced cell death
# Method: Figure 2 Sorafenib inhibits TNF-induced RIPK1-dependent cell death in both murine and human cell lines and rescues AML cells from Smac mimetic-induced necroptosis. […] (c,d) HT-29 and Jurkat FADD−/− cells were pretreated for 1 h with DMSO, Nec-1 or Sorafenib (concentrations as indicated) and stimulated for 6 h with 30 ng/ml hTNF, 1 μM BV6 and 30 μM zVAD (HT-29) or stimulated for 10 h with 100 ng/ml hTNF (Jurkat FADD−/−). (a-d) Data were normalized to DMSO-treated control cells and represent the mean value±S.E.M. of three independent experiments. Toxic concentrations were removed from the analysis. L929sAhFas and MEF cells were stained with Hoechst and PI and percentage PI-positive nuclei was determined using high-content image analysis (BD pathway Bioimager). For HT-29 and Jurkat FADD−/− cells, cell death was determined by PI staining and flow cytometry. […] Cell death in AML cells was determined by PI staining and flow cytometry. Mean and S.D. of three independent experiments performed in triplicate are shown Supplementary materials and methods Immunoblotting. After treatments, cells were washed twice with PBS and lysed with Laemmli buffer (2x) directly or with NP-40 lysis buffer (150 mM NaCl, 1% NP-40, 10% glycerol, 10 mM Tris-HCl pH 8) supplemented with EDTA-free protease inhibitor cocktail tablets (Roche Diagnostics, Basel, Switzerland, #11873580001) and phosphatase inhibitor cocktail tablets (Roche Diagnostics, #04906837001). After lysis with NP-40 lysis buffer, lysates were kept 10 minutes on ice and centrifugated in a microcentrifuge (10 min, 13.000 rpm, 4°C). Supernatant was used for SDS-PAGE and immunoblotting. FACS analysis. FACS analysis was used to measure dying HT-29, Jurkat FADD-/- and AML cells. Treated HT-29 cells were harvested, washed with PBS and incubated with Annexin V binding buffer (BD Biosciences, 556454) containing 7-AAD and Annexin V-FITC for 15 min according to the manufacturer’s protocol. FACSCalibur^TM Flow Cytometer (BD Biosciences) and CellQuest Pro software were used to perform experiments and analyze data respectively.
# [2] = tested on: L929sAhFas; assay: cells; set-up: high-content necroptosis screen, percentage PI-positive nuclei as percent of DMSO plus stimulus control
# Excerpt: To identify novel inhibitors or regulators of necroptosis, 500 small compounds from libraries targeting autophagy, kinases, phosphatases, proteases and redox balance were screened for their ability to block TNF-induced necroptosis in murine L929sAhFas cells. Three conditions were used to induce necroptosis in L929 cells: TNF alone, TNF+TAK1 inhibitor (TAK1i) and TNF+zVAD-fmk, a pan-caspase inhibitor. Inhibition of TAK1 or caspases sensitizes to necroptosis.[13], [32] Necroptosis, measured as the percentage of PI-positive nuclei normalized to the plate-specific DMSO control, was determined for each compound (Supplementary Figure 1A). […] After compound treatment, L929sAhFas (a) or L929 (b) cells were stimulated with mTNF (T), mTNF+Tak1i (TiT) or mTNF+zVAD (zVT) (Supplementary Figure 1A and B). (a) Cell death percentage (% PI-positive nuclei) or cell loss was calculated as percent of control (DMSO+stimulus). […] (b) Cell loss (luminescence-based readout for ATP) was calculated as percent of control (DMSO+stimulus). […] In stimulated conditions, % PI-positive nuclei was determined as % of DMSO control. Data represent mean values±S.E.M. of two independent experiments. Cells were stained with Hoechst and PI and percentage PI-positive nuclei was determined using high-content image analysis (BD pathway Bioimager). (d) L929sAhFas cells were treated with Sorafenib (concentration as indicated) for 24 h. Then, stimulus was removed, 50 cells/condition seeded and colonies counted with crystal violet staining after 10 days incubation. […] Schemes of workflow screening assays in L929 cell lines. (A) Scheme of the workflow of a high-content screening assay on L929sAhFas cells using mTNF (T) and mTNF+Tak1i ((5Z)-7-Oxozeaenol) (TiT) to induce necroptotic cell death. Nec-1 and zVAD-fmk were used as protective and sensitizing benchmarks, respectively, on all plates. (B) Scheme of the workflow of a CellTiter-Glo luminescent cell viability screening assay on L929 cells using mTNF+zVAD (zVT) to induce necroptotic cell death. Supplementary Figure S2. Z’ calculation for cell death screening assays in L929 cells. (A) Z’ calculation for cell death screening assay (Fig. 1A) in mTNF-stimulated L929sAhFas cells. (B) Z’ calculation for cell death screening assay (Fig. 1A) in L929sAhFas cells stimulated with mTNF + Taki.
compound,measurement,setting,value
CNC(=O)c1cc(Oc2ccc(NC(=O)Nc3ccc(Cl)c(C(F)(F)F)c3)cc2)ccn1 [Sorafenib tosylate],IC50,[1],≤ 30 nM
same,activity at 10 µM,[2]; read-out: cell death TNF (POC),41.5%
same,activity at 10 µM,[2]; read-out: cell death TNF/Taki (POC),11.8%
